Measurements: patent US20220324770A1, “NITRIFICATION INHIBITORS” (The University of Melbourne, priority 2019, published 2022)

How the values were obtained:
Terang soil = assay: Soil microcosm incubation (nitrification of applied ammonium), Terang soil; settings: for Nitrified NH4+—N (%) Day 3 / Nitrified NH4+—N (%) Day 7 / Nitrified NH4+—N (%) Day 14 / Nitrified NH4+—N (%) Day 28: Terang soil pH 6.5, 25° C., L-DMPP 1.5 mol %; for Nitrified NH4+—N (%) Day 3: compounds 10 mol % of applied N, (NH4)2SO4 100 mg N per kg soil; for Nitrified NH4+—N (%) Day 7 / Nitrified NH4+—N (%) Day 14 / Nitrified NH4+—N (%) Day 28: compounds 10 mol %
Experimental: (§1) The soil used in this study was collected from four different locations in Victoria, Australia: (i) a wheat cropping soil from Horsham (36° 45′S, 142° 07′ E), (ii) a rotational cropping soil from Dahlen (36° 37′S, 142° 09′ E), (iii) a vegetable growing soil from Clyde (38° 08′S, 145° 20′ E), and (iv) a pasture soil from Terang (38° 15′S, 142° 52′E). In addition, a sugarcane cropping soil from South Johnstone in northern Queensland (17° 34′S, 145° 57′ E) was also studied. The water content of the soil was calculated before commencing each experiment, from samples that were oven-dried to constant weight. The soil's water-filled pore space (WFPS) was in the range 52%-61%, which is within the recommended 50-70% range for microbial activity due to oxygen and nutrient availability (Fichtner, T., et al., Applied Sciences, 2019, 9, 496).
(§2) Soil microcosm incubations were carried out in 250 ml polypropylene specimen containers (Sarstedt, Germany), containing 18.24 g oven dry-weight equivalent of soil. Microcosms were re-wetted and pre-incubated at the test temperature for seven days to revive soil microbial activity. Following pre-incubation, the remaining volume to reach the desired water-filled pore spaces (WFPS %) was applied as one of the following treatment solutions; (NH4)2SO4(Control), (NH4)2SO4+DMPP, or (NH4)2SO4+one of Compounds 1-23. Each treatment was applied in triplicate per soil type, so that n=3 at each time point.
(§3) Treatment solutions were prepared such that each microcosm received (NH4)2SO4 at a rate of 100 mg N per kg soil, Compounds 1-23 at 10 mol % of applied N, or DMPP at one of 1.5, 3.6 or 10 mol % of applied N, referred to as L-DMPP, M-DMPP or H-DMPP respectively.
(§4) The microcosms were incubated for 0, 3, 7, 14, 21 or 28 days, where day 0 samples were extracted following 1-hour incubation post-treatment. Soil microcosms were aerated and moisture levels were replenished based on weight loss every few days throughout the incubation period.
(§5) At the end of each incubation period, soil microcosms were destructively sampled by treatment with 2M KCl (100 mL). After shaking for 1 hour, soil-KCl solutions were filtered (Whatman 42) before storing the filtrates at −20° C. until the conclusion of the experiment. All KCl extracts were then analysed by Segmented Flow Analysis (San++, Skalar, Breda, The Netherlands) for the concentration of nitrogen from ammonium (NH4^+—N) and nitrogen from NO3 and NO2 (NOx^−—N) after appropriate dilutions. Results are reported as the mean of three replicates, errors reported are standard errors of the mean.
(§6) Nitrification calculations were performed as previously reported (Aulakh, M., et al., Biology and Fertility of Soils 2001, 33, 258-263; Mahmood, T., et al., Soil Research 2017, 55, 715-722) without correction for the initial baseline concentrations of NH4^+—N or NO3^− N in the untreated soil. For each treatment nitrified NH4^+—N (%) was calculated according to eqn. 1:
(§7) where [NH4^+—N]0 is the NH4^+—N concentration (in mg N kg^−1 soil) of the soil on day 0 and [NH4^+—N]t is the NH4^+—N concentration (in mg N kg^−1 soil) of the soil at a given time point t.

South Johnstone soil = assay: Soil microcosm incubation (nitrification of applied ammonium), South Johnstone soil; settings: for Nitrified NH4+—N (%) Day 3 / Nitrified NH4+—N (%) Day 7 / Nitrified NH4+—N (%) Day 14 / Nitrified NH4+—N (%) Day 21 / Nitrified NH4+—N (%) Day 28: 10 mol %; for effectiveness compared to treatment with DMPP (higher NH4+—N, lower NOx−—N) / retaining NH4+—N vs DMPP / retaining NH4+—N and slowing NOx−—N growth vs fertilised control: South Johnstone soil; for effectiveness compared to treatment with DMPP (higher NH4+—N, lower NOx−—N): 25° C.; for Nitrified NH4+—N (%) Day 28 / effectiveness compared to treatment with DMPP (higher NH4+—N, lower NOx−—N) / retaining NH4+—N and slowing NOx−—N growth vs fertilised control: day 28; for retaining NH4+—N vs DMPP / retaining NH4+—N and slowing NOx−—N growth vs fertilised control: 35° C.
Experimental: as §1, §2, §3, §4, §5, §6, §7

Horsham soil = assay: Soil microcosm incubation (nitrification of applied ammonium), Horsham soil
Experimental: as §1, §2, §3, §4, §5, §6, §7
(§8) NOx^−—N accumulation rates (mg NOx^−—N/kg soil/day) over the 28-day incubation experiments were calculated for each treatment as in the following (eqn. 2):
(§9) [NOx^−—N]t=0 and [NOx^−—N]t=28 are the combined concentrations of nitrite (NO2) and nitrate (NO3) in the soil (in mg N kg^−1 soil) on day 0 and day 28, respectively.

Dahlen soil = assay: Soil microcosm incubation (nitrification of applied ammonium), Dahlen soil; settings: for Nitrified NH4+—N (%) Day 3 / Nitrified NH4+—N (%) Day 7 / Nitrified NH4+—N (%) Day 14 / Nitrified NH4+—N (%) Day 21 / Nitrified NH4+—N (%) Day 28: 10 mol %
Experimental: as §1, §2, §3, §4, §5, §6, §7, §8, §9

[1] = South Johnstone soil pH 5.0, 25° C., negative = NH4+—N higher than day 0 (mineralisation)
[2] = South Johnstone soil pH 5.0, 25° C.
[3] = South Johnstone soil pH 5.0, 35° C.
[4] = Horsham soil pH 8.8, 25° C., 10 mol %
[5] = Horsham soil pH 8.8, 35° C., 10 mol %
[6] = Table 4, Dahlen soil pH 7.3, 25° C.
[7] = Table 4, Dahlen soil pH 7.3, 35° C.
[8] = Table 5, Dahlen soil pH 7.3, 25° C.
[9] = Table 5, Dahlen soil pH 7.3, 35° C.

CCCCn1cc(C(C)(C)O)nn1 [Compound 4, 1-butyl-4-(α,α-dimethylmethanol)-1H-1,2,3-triazole]
Nitrified NH4+—N (%) Day 3 (Terang soil): 27.0 ± 7.5% | Nitrified NH4+—N (%) Day 7 (Terang soil): 67.3 ± 5.2% | Nitrified NH4+—N (%) Day 14 (Terang soil): 96.4 ± 5.8% | Nitrified NH4+—N (%) Day 28 (Terang soil): 100 ± 5.9%

CCCCc1cn(CC(=O)OCC)nn1 [Compound 3, 4-Butyl-1H-1,2,3-Triazole-1-Acetic Acid Ethyl Ester]
Nitrified NH4+—N (%) Day 3 (Terang soil): 15.6 ± 3.0% | Nitrified NH4+—N (%) Day 7 (Terang soil): 29.4 ± 2.6% | Nitrified NH4+—N (%) Day 14 (Terang soil): 47.8 ± 3.5% | Nitrified NH4+—N (%) Day 28 (Terang soil): 99.9 ± 2.8% | retaining NH4+—N in the soil compared with the fertilised control (Terang soil; Terang soil, 25° C.): most effective treatments | Nitrified NH4+—N (%) Day 3 (South Johnstone soil; [1]): −6.3 ± 0.7% | Nitrified NH4+—N (%) Day 7 (South Johnstone soil; [2]): −7.9 ± 0.9% | Nitrified NH4+—N (%) Day 14 (South Johnstone soil; [2]): −12.7 ± 0.7% | Nitrified NH4+—N (%) Day 21 (South Johnstone soil; [2]): −13.9 ± 0.9% | Nitrified NH4+—N (%) Day 28 (South Johnstone soil; [2]): −12.8 ± 0.8% | Nitrified NH4+—N (%) Day 3 (South Johnstone soil; [3]): −11.8 ± 1.5% | Nitrified NH4+—N (%) Day 7 (South Johnstone soil; [3]): −26.2 ± 1.5% | Nitrified NH4+—N (%) Day 14 (South Johnstone soil; [3]): −34.8 ± 0.6% | Nitrified NH4+—N (%) Day 21 (South Johnstone soil; [3]): −28.3 ± 1.4% | Nitrified NH4+—N (%) Day 28 (South Johnstone soil; [3]): −18.6 ± 2.3% | effectiveness compared to treatment with DMPP (higher NH4+—N, lower NOx−—N) (South Johnstone soil): statistically higher effectiveness | retaining NH4+—N vs DMPP (South Johnstone soil): performed statistically better than DMPP | retaining NH4+—N and slowing NOx−—N growth vs fertilised control (South Johnstone soil): performed statistically better than the fertilised control

CCCCc1cn(CCCC)nn1 [Compound 2, 1,4-butyl-1H-1,2,3-triazole]
Nitrified NH4+—N (%) Day 3 (Horsham soil; Horsham soil pH 8.8, 25° C., inhibitors 10 mol % of applied N): 12.2 ± 8.6% | Nitrified NH4+—N (%) Day 7 (Horsham soil; [4]): 17.9 ± 6.9% | Nitrified NH4+—N (%) Day 14 (Horsham soil; [4]): 44.5 ± 7.2% | Nitrified NH4+—N (%) Day 21 (Horsham soil; [4]): 66.6 ± 8.9% | Nitrified NH4+—N (%) Day 28 (Horsham soil; [4]): 90.4 ± 9.7% | Nitrified NH4+—N (%) Day 3 (Horsham soil; [5]): −3.3 ± 5.9% | Nitrified NH4+—N (%) Day 7 (Horsham soil; [5]): 8.8 ± 5.5% | Nitrified NH4+—N (%) Day 14 (Horsham soil; [5]): 40.3 ± 5.4% | Nitrified NH4+—N (%) Day 21 (Horsham soil; [5]): 53.8 ± 9.4% | Nitrified NH4+—N (%) Day 28 (Horsham soil; [5]): 71.6 ± 22.9% | retaining NH4+ vs uninhibited control treatment (Horsham soil; Horsham soil, 25° C., after 28 days): to a lesser extent | NOx−—N accumulation: effect of temperature (25° C. vs 35° C.) (Horsham soil; Horsham soil, 28-day incubation): lower at the elevated temperature | nitrification rates vs uninhibited control treatment (Horsham soil; Horsham soil, 35° C.): lower nitrification rates than the uninhibited control treatment | Nitrified NH4+—N (%) Day 3 (Terang soil): 27.2 ± 2.0% | Nitrified NH4+—N (%) Day 7 (Terang soil): 64.8 ± 2.3% | Nitrified NH4+—N (%) Day 14 (Terang soil): 95.6 ± 2.8% | Nitrified NH4+—N (%) Day 28 (Terang soil): 100 ± 2.7% | retaining NH4+—N vs uninhibited control treatment and DMPP (Dahlen soil; Dahlen soil, 25° C., after 28 days): performed statistically better | retaining NH4+ vs both DMPP treatment and control treatment (Dahlen soil; Dahlen soil, 35° C., after 28 days): performed statistically better | Nitrified NH4+—N (%) Day 3 (Dahlen soil; [6]): 7.5 ± 5.2% | Nitrified NH4+—N (%) Day 7 (Dahlen soil; [6]): 21.2 ± 12.2% | Nitrified NH4+—N (%) Day 14 (Dahlen soil; [6]): 20.3 ± 21.6% | Nitrified NH4+—N (%) Day 21 (Dahlen soil; [6]): 32.9 ± 18.4% | Nitrified NH4+—N (%) Day 28 (Dahlen soil; [6]): 37.6 ± 11.0% | Nitrified NH4+—N (%) Day 3 (Dahlen soil; [7]): 1.7 ± 3.3% | Nitrified NH4+—N (%) Day 7 (Dahlen soil; [7]): −1.3 ± 1.9% | Nitrified NH4+—N (%) Day 14 (Dahlen soil; [7]): 2.0 ± 2.4% | Nitrified NH4+—N (%) Day 21 (Dahlen soil; [7]): 29.6 ± 3.6% | Nitrified NH4+—N (%) Day 28 (Dahlen soil; [7]): 22.4 ± 1.5%

C=CCn1cc(CCC)nn1 [Compound 18, 1-(2-propen-1-yl)-4-propyl-1H-1,2,3-triazole]
Nitrified NH4+—N (%) Day 3 (South Johnstone soil; [1]): −6.2 ± 0.9% | Nitrified NH4+—N (%) Day 7 (South Johnstone soil; [2]): −8.5 ± 1.0% | Nitrified NH4+—N (%) Day 14 (South Johnstone soil; [2]): −11.0 ± 1.0% | Nitrified NH4+—N (%) Day 21 (South Johnstone soil; [2]): −12.1 ± 1.4% | Nitrified NH4+—N (%) Day 28 (South Johnstone soil; [2]): −14.9 ± 1.4% | Nitrified NH4+—N (%) Day 3 (South Johnstone soil; [3]): −11.7 ± 2.0% | Nitrified NH4+—N (%) Day 7 (South Johnstone soil; [3]): −28.7 ± 1.5% | Nitrified NH4+—N (%) Day 14 (South Johnstone soil; [3]): −35.8 ± 1.3% | Nitrified NH4+—N (%) Day 21 (South Johnstone soil; [3]): −31.7 ± 1.1% | Nitrified NH4+—N (%) Day 28 (South Johnstone soil; [3]): −16.9 ± 1.8% | effectiveness compared to treatment with DMPP (higher NH4+—N, lower NOx−—N) (South Johnstone soil): statistically higher effectiveness | retaining NH4+—N vs DMPP (South Johnstone soil): performed statistically better than DMPP | retaining NH4+—N and slowing NOx−—N growth vs fertilised control (South Johnstone soil): performed statistically better than the fertilised control | retaining NH4+—N levels by day 28 vs fertilised control (and DMPP) (Dahlen soil; Dahlen soil, 25° C., Table 5 test): performed statistically better | retaining NH4+—N vs (NH4)2SO4-treated control by day 28 (Dahlen soil; Dahlen soil, 35° C., Table 5 test): remain highly effective | Nitrified NH4+—N (%) Day 3 (Dahlen soil; Table 5 (further comparative test), Dahlen soil pH 7.3, 25° C.): 5.1 ± 5.3% | Nitrified NH4+—N (%) Day 7 (Dahlen soil; [8]): 4.4 ± 1.1% | Nitrified NH4+—N (%) Day 14 (Dahlen soil; [8]): 29.4 ± 2.4% | Nitrified NH4+—N (%) Day 21 (Dahlen soil; [8]): 32.1 ± 2.3% | Nitrified NH4+—N (%) Day 28 (Dahlen soil; [8]): 40.5 ± 1.5% | Nitrified NH4+—N (%) Day 3 (Dahlen soil; [9]): 9.0 ± 4.3% | Nitrified NH4+—N (%) Day 7 (Dahlen soil; [9]): 4.5 ± 4.3% | Nitrified NH4+—N (%) Day 14 (Dahlen soil; [9]): 26.7 ± 3.9% | Nitrified NH4+—N (%) Day 21 (Dahlen soil; [9]): 19.8 ± 5.0% | Nitrified NH4+—N (%) Day 28 (Dahlen soil; [9]): 43.0 ± 4.7%

CCCCCc1cn(CCCC)nn1 [Compound 1, 1-butyl-4-pentyl-1H-1,2,3-triazole]
Nitrified NH4+—N (%) Day 3 (Terang soil): 13.6 ± 3.1% | Nitrified NH4+—N (%) Day 7 (Terang soil): 43.1 ± 3.7% | Nitrified NH4+—N (%) Day 14 (Terang soil): 85.1 ± 4.5% | Nitrified NH4+—N (%) Day 28 (Terang soil): 100 ± 4.2%
